In general, Ki refers to the dissociation constant of the complex between target and ligand, obtained from inhibition or displacement.

One test has as its target T1, 5-HT1A receptors (Rattus norvegicus, UniProt P19327).
T1 construct: The Hippocampi of these animals were homogeneized in 10 volumes of ice cold TRIS buffer; from tissue; host or cells: rat hippocampus (male Sprague Dawley), homogenate
T1 sequence (P19327 1-422): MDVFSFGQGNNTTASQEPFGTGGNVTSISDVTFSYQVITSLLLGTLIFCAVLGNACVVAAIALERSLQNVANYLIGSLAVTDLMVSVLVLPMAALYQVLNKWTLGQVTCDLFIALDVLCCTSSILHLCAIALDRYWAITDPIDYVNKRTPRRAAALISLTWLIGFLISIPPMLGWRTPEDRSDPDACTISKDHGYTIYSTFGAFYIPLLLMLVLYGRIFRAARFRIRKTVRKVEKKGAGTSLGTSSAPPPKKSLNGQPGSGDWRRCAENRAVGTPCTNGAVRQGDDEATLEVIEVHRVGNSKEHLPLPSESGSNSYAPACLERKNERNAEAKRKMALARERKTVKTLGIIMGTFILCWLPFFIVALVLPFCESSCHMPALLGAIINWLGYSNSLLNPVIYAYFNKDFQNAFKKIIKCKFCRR
Nature of the test: 5-HT1A receptor binding ([3H]-8-OH-DPAT displacement, rat hippocampus homogenate). Set-up: species or system rat (male Sprague Dawley). The settings on record: [3H]-8-OH-DPAT 1.0-1.5 nM, 30° C., 15 min, pH 7.4, read-out: Affinity for 5-HT1A receptors, Ki. The procedure:
(§1) Receptor binding studies on 5-HT1A and 5-HT2 receptors were carried out to determine the affinity of the test compounds.
Rats (male Sprague Dawley, 200-250 g) were used. The Hippocampi of these animals were homogeneized in 10 volumes of ice cold TRIS buffer (pH 7.4). The homogenate was diluted 1:400 (w:v) in the same buffer to have a final protein concentration of about 200 μg/mL, filtered and incubated at 37° C. for 10 min, before use.
Displacement experiments were performed by incubating the homogenate (980 μL) in the presence of [^3 H]-8OH-DPAT (1.0-1.5 nM) (10 μL) and of different concentrations of the test compounds dissolved in the test buffer (10 μL), at 30° C. for 15 min (final volume: 1 mL).
Non specific binding was determined in the presence of 100 μM 5-HT (10 μL). The separation of [3H]-8-OH-DPAT, free from that bound to the receptor, was carried out by the filtration technique (GF/B filters, Whatman). The radioactivity present was counted by liquid scintillation spectrometry.
The affinity values (Ki) for the compounds were obtained by a non linear least squares regression analysis on the basis of a one binding site model. The values were corrected on the basis of the radioligand occupancy on the receptors according to the equation: Ki=IC50 /(1+[C]/KD),where [C] and KD represent the concentration and the dissociation constant, respectively, of the radioligand used ([^3 H]-8-OH-DPAT).

A further test has as its target T2, 5-HT2 receptors (Rattus norvegicus, UniProt P14842).
T2 construct: Cerebral cortices were homogenized in 10 volumes of ice cold 0.32M sucrose; from tissue; host or cells: rat cerebral cortex (male Sprague Dawley), membrane preparation
The test can be described thus: 5-HT2 receptor binding ([3H]-Ketanserine displacement, rat cerebral cortex). Set-up: species or system rat (male Sprague Dawley). To be noted: [3H]-Ketanserine 0.5-1.0 nM, 37° C., 10 min, pH 7.4, read-out: Affinity for 5-HT2 receptors, Ki. On the procedure:
as §1
Rats (male Sprague Dawley, 200-250 g) were used. Cerebral cortices were homogenized in 10 volumes of ice cold 0.32M sucrose. After the centrifugation of the homogenate (1,000×g for 10 min) the supernatant was then recentrifuged at 48,000×g for 15 min. The resulting pellet was resuspended in 10 volumes of 50 mM TRIS buffer (pH 7.4), incubated at 37° C. for 10 min and recentrifuged at 48,000×g for 15 min. The residue was then resuspended in 10 volumes of 50 mM TRIS buffer (pH 7.4).
The tissue was diluted 1:100 (w:v) in 50 mM TRIS buffer (pH 7.4) to have a final protein concentration of about 200 μg/mL.
Displacement experiments were performed by incubating the homogenate (980 μL) in the presence of [^3 H]-Ketanserine (0.5-1.0 nM) (10 μL) and of different concentrations of the test compounds dissolved in the assay buffer (10 μL), at 37° C. for 10 min (final volume: 1 mL).
Non specific binding was determined in the presence of 100 μM Methysergide (10 μL). The separation of [^3 ]-Ketanserine free from that bound to the receptor was carried by the filtration technique (GF/B filters, Whatman). The radioactivity present was counted by liquid scintillation spectrometry.
The affinity values (Ki) for the compounds were obtained by non linear least squares regression analysis on the basis of a one binding site model. These values were corrected on the basis of the radioligand occupancy on the receptors according to the equation: Ki=IC50 /(1+[C]/KD), where [C] and KD represent the concentration and the dissociation constant, respectively, of the radioligand used ([^3 H]-Ketanserine).

T2 sequence (P14842 whole entry): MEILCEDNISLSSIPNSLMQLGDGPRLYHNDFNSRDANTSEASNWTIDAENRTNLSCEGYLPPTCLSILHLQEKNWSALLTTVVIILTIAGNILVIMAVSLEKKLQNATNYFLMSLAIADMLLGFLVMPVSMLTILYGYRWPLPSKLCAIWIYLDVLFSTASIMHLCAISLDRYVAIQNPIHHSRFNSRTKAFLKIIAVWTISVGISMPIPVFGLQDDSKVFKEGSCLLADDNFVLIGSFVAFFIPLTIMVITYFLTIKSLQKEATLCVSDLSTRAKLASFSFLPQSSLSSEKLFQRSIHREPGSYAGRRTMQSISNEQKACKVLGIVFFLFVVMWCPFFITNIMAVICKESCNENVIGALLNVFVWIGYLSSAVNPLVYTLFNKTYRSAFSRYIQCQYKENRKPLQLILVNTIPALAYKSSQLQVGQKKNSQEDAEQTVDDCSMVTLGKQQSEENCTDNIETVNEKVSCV

As to `COc1ccc2[nH]cc(CC3=CCCN(CCOc4ccc(F)cc4)C3)c2c1` [Compound 2, 5-methoxy-3-[N-(4'-fluoro-phenoxy-ethyl)-1,2,5,6-tetrahydro-pyridin-3-yl-methyl]-1H-indole], the results for the Ki at 5-HT1A receptors and on 5-HT2 receptors were 10 nM and 50 nM, respectively.
With `COc1ccc2[nH]cc(CC3=CCCN(CCCC(=O)c4ccc(F)cc4)C3)c2c1` [Compound 9, 5-methoxy-3-[N-(4-(4-fluoro-phenyl)-4-oxo-butyl)-1,2,5,6-tetrahydro-pyridin-3-ylmethyl]-1H-indole], the Ki is 30 nM on 5-HT1A receptors and 15 nM at 5-HT2 receptors.
With `COc1ccc2[nH]cc(CC3=CCCN(C)C3)c2c1` [Compound 1, 5-methoxy-3-(N-methyl-1,2,5,6-tetrahydro-pyridin-3-yl-methyl)-1H-indole], at 5-HT1A receptors, the Ki is 35 nM.
Same read-out and setting: then `COc1ccc2[nH]cc(CC3=CCCN(CCNC(=O)c4ccc(F)cc4)C3)c2c1` [Compound 16], with 1 nM.
As for `COc1ccc2[nH]cc(CC3=CCCN(CCCc4ccc(F)cc4)C3)c2c1` [Compound 15, 5-methoxy-3-[N-(3-(4-fluoro-phenyl)-propyl)-1,2,5,6-tetrahydro-pyridin-3-ylmethyl]-1H-indole], the Ki at 5-HT1A receptors and at 5-HT2 receptors was 10 nM in each case.
Take `COc1ccc2[nH]cc(CC3=CCCN(CCc4ccc(N)cc4)C3)c2c1` [Compound 13, 5-methoxy-3-[N-(2-(4-amino-phenyl)-ethyl)-1,2,5,6-tetrahydro-pyridin-3-ylmethyl]-1H-indole]: the Ki on 5-HT1A receptors turned out to be 100 nM; at 5-HT2 receptors, 50 nM.
Take `COc1ccc2[nH]cc(CC3=CCCN(CCCC(=O)c4cccs4)C3)c2c1` [Compound 32, 5-methoxy-3-[N-(4-(2-thienyl)-4-oxo-butyl)-1,2,5,6-tetrahydro-pyridin-3-ylmethyl]-1H-indole]: the Ki at 5-HT1A receptors came to 30 nM; at 5-HT2 receptors, 10 nM.
The like results for `COc1ccc2[nH]cc(CC3=CCCN(CCCCc4ccc(F)cc4)C3)c2c1` [Compound 14, 5-methoxy-3-[N-(4-(4-fluoro-phenyl)-butyl)-1,2,5,6-tetrahydro-pyridin-3-ylmethyl]-1H-indole] were, in that order, 80 nM and 100 nM.
For `COc1ccc2[nH]cc(CC3=CCCN(CCC(=O)c4ccc(F)cc4)C3)c2c1` [Compound 11, 5-methoxy-3-[N-(3-(4-fluoro-phenyl)-3-oxo-propyl)-1,2,5,6-tetrahydro-pyridin-3-ylmethyl]-1H-indole], the results for the Ki on 5-HT1A receptors and at 5-HT2 receptors were 30 nM and 20 nM, respectively.
Regarding `COc1ccc2[nH]cc(CC3=CCCN(CCNC(=O)c4cccs4)C3)c2c1` [Compound 17, 5-methoxy-3-[N-(2-(2-thiophene-carboxamide)-ethyl)-1,2,5,6-tetrahydro-pyridin-3-ylmethyl]-1H-indole], the Ki on 5-HT1A receptors was 1 nM.

These data come from patent US5834493A, “Indole derivatives as 5-HT1A and/or 5-HT2 ligands” (priority 1993, dated 1998).
